Test results reported in patent publication US8183265B2, “2-adamantyl-butyramide derivatives as selective 11β-HSD1 inhibitors” (Merck Patent GmbH, priority 2006, dated 2012).

Biological target: Human recombinant 11beta-hydroxysteroid dehydrogenase type 1 (11beta-HSD1) (Homo sapiens, UniProt P28845)
Test: 11beta-HSD1 enzyme assay (HTRF cortisol)
Protocol: Mice liver microsome fractions were purchased from TEBU.
The 11beta-HSD1 enzyme assay was carried out in 96 well microtiter plates in a total volume of 100 μl containing 30 mM Hepes buffer, pH 7.4 with 1 mM EDTA, substrate mixture cortisone/NADPH (200 nM/200 μM), G-6-P (1 mM) and inhibitors in serial dilutions. […] Following mixing, the plates were shaken for 150 minutes at 37° C. The reactions were terminated with 10 μl Acid-18beta glycyrrhetinic stop solution. Determinations of cortisol levels in 11 beta-HSD1 preparations were monitored by HTRF (HTRF cortisol assay from Cis bio international).

Human recombinant 11beta-hydroxysteroid dehydrogenase type 1 (11beta-HSD1), sequence (P28845 whole entry): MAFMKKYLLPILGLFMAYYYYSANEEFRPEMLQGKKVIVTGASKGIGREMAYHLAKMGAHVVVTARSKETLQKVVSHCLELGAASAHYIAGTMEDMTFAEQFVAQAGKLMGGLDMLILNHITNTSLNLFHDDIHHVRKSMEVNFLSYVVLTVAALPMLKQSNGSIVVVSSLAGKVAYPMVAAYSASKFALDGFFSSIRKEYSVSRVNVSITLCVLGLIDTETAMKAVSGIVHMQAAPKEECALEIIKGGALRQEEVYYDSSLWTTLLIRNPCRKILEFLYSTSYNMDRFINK

SMILES: COc1cc(Cl)ccc1OCC(C)(C)CC(=O)NC1C2CC3CC(C2)CC1C3 (stereo not shown)
- IC50: 45 nM
